The source of these data is ChEMBL document CHEMBL3044687, “Microwave-assisted synthesis of some novel and potent antibacterial and antifungal compounds with biological screening” (2012).

Format in all cases: functional
Conditions in all cases: read-out: DIZ

Experiment [1] has as its system Staphylococcus aureus. In words: Antibacterial activity against Staphylococcus aureus at 100 ug/ml after 24 hr by disk diffusion method. Background: Agar diffusion results depend on both activity and mobility in agar.
Experiment [2] has as its system Staphylococcus aureus. In words: Antibacterial activity against Staphylococcus aureus at 50 ug/ml after 24 hr by disk diffusion method.
The test system of experiment [3] is Bacillus subtilis. The experiment can be described thus: Antibacterial activity against Bacillus subtilis at 100 ug/ml after 24 hr by disk diffusion method.
The subject of experiment [4] is Bacillus subtilis. The experiment can be described thus: Antibacterial activity against Bacillus subtilis at 200 ug/ml after 24 hr by disk diffusion method.
The subject of experiment [5] is Bacillus subtilis. In words: Antibacterial activity against Bacillus subtilis at 50 ug/ml after 24 hr by disk diffusion method.
Experiment [6] relates to Pseudomonas aeruginosa. In words: Antibacterial activity against Pseudomonas aeruginosa at 100 ug/ml after 24 hr by disk diffusion method.
Experiment [7] concerns Pseudomonas aeruginosa. In words: Antibacterial activity against Pseudomonas aeruginosa at 200 ug/ml after 24 hr by disk diffusion method.
Experiment [8] concerns Pseudomonas aeruginosa. In words: Antibacterial activity against Pseudomonas aeruginosa at 50 ug/ml after 24 hr by disk diffusion method.
Experiment [9] has as its system Escherichia coli. In words: Antibacterial activity against Escherichia coli at 200 ug/ml after 24 hr by disk diffusion method.
For experiment [10], the system named is Escherichia coli. In words: Antibacterial activity against Escherichia coli at 50 ug/ml after 24 hr by disk diffusion method.
Experiment [11] relates to Escherichia coli. In words: Antibacterial activity against Escherichia coli at 100 ug/ml after 24 hr by disk diffusion method.
Experiment [12] concerns Candida albicans. The experiment can be described thus: Antifungal activity against Candida albicans at 200 ug/ml after 48 hr by disk diffusion method.
Experiment [13] concerns Aspergillus niger. In words: Antifungal activity against Aspergillus niger at 50 ug/ml after 48 hr by disk diffusion method.
Experiment [14] concerns Candida albicans. The experiment can be described thus: Antifungal activity against Candida albicans at 100 ug/ml after 48 hr by disk diffusion method.
In experiment [15] the test system is Candida albicans. The experiment can be described thus: Antifungal activity against Candida albicans at 50 ug/ml after 48 hr by disk diffusion method.
Experiment [16] relates to Staphylococcus aureus. In words: Antibacterial activity against Staphylococcus aureus at 200 ug/ml after 24 hr by disk diffusion method.
Experiment [17] concerns Aspergillus niger. The experiment can be described thus: Antifungal activity against Aspergillus niger at 200 ug/ml after 48 hr by disk diffusion method.
Experiment [18] deals with Aspergillus niger. In words: Antifungal activity against Aspergillus niger at 100 ug/ml after 48 hr by disk diffusion method.

Regarding `CCN(CC)CN1C(=O)NC(c2ccccc2)(c2ccccc2)C1=O`, the zone of inhibition at 100 µg/mL stood at 10 mm in the experiment with Staphylococcus aureus [1]; 9 mm with Bacillus subtilis [3]; 9 mm in the experiment on Pseudomonas aeruginosa [6]; 13 mm in the experiment with Escherichia coli [11]; 10 mm in the experiment with Candida albicans [14]; 10 mm in the experiment on Aspergillus niger [18]. Besides, the zone of inhibition at 50 µg/mL in the experiment with Staphylococcus aureus [2] came to 5 mm; with Bacillus subtilis [5], 3 mm; with Pseudomonas aeruginosa [8] it was 5 mm; in the experiment with Escherichia coli [10], 3 mm; in the experiment on Aspergillus niger [13], 8 mm; in the experiment on Candida albicans [15] it was 9 mm. In addition, the zone of inhibition at 200 µg/mL in the experiment with Bacillus subtilis [4] is 15 mm; with Pseudomonas aeruginosa [7], 14 mm; in the experiment on Escherichia coli [9], 18 mm; in the experiment on Candida albicans [12], 11 mm; in the experiment with Staphylococcus aureus [16] it was 14 mm; in the experiment on Aspergillus niger [17] it was 12 mm.
Consider `O=C1N(c2ccccc2)C(=O)C(c2ccccc2)(c2ccccc2)N1CNc1nc2ccccc2s1`, for which the zone of inhibition at 100 µg/mL in the experiment on Staphylococcus aureus [1] stood at 10 mm; in the experiment with Bacillus subtilis [3], 10 mm; in the experiment on Pseudomonas aeruginosa [6], 12 mm; with Escherichia coli [11], 15 mm; in the experiment with Candida albicans [14], 15 mm; in the experiment with Aspergillus niger [18], 16 mm. The zone of inhibition at 50 µg/mL came to 5 mm in the experiment with Staphylococcus aureus [2]; 7 mm with Bacillus subtilis [5]; 7 mm in the experiment with Pseudomonas aeruginosa [8]; 6 mm in the experiment with Escherichia coli [10]; 16 mm in the experiment with Aspergillus niger [13]; 13 mm with Candida albicans [15]. Moreover, the zone of inhibition at 200 µg/mL was 18 mm in the experiment on Bacillus subtilis [4]; 20 mm in the experiment on Pseudomonas aeruginosa [7]; 17 mm in the experiment on Escherichia coli [9]; 20 mm in the experiment on Candida albicans [12]; 17 mm with Staphylococcus aureus [16]; 20 mm with Aspergillus niger [17].
For the compound `O=C1N(c2ccccc2)C(=O)C(c2ccccc2)(c2ccccc2)N1Cn1nnc2ccccc21`, the zone of inhibition at 100 µg/mL was found to be 10 mm in the experiment with Staphylococcus aureus [1]; 12 mm in the experiment on Bacillus subtilis [3]; 10 mm with Pseudomonas aeruginosa [6]; 8 mm in the experiment with Escherichia coli [11]; 12 mm in the experiment with Candida albicans [14]; 11 mm with Aspergillus niger [18]. In addition, the zone of inhibition at 50 µg/mL was determined as 4 mm in the experiment with Staphylococcus aureus [2]; 5 mm in the experiment with Bacillus subtilis [5]; 6 mm in the experiment on Pseudomonas aeruginosa [8]; 3 mm in the experiment with Escherichia coli [10]; 11 mm with Aspergillus niger [13]; 11 mm in the experiment with Candida albicans [15]. The zone of inhibition at 200 µg/mL in the experiment with Bacillus subtilis [4] was determined as 18 mm; in the experiment on Pseudomonas aeruginosa [7] it was 12 mm; in the experiment on Escherichia coli [9], 14 mm; in the experiment with Candida albicans [12], 13 mm; with Staphylococcus aureus [16], 14 mm; in the experiment on Aspergillus niger [17], 11 mm.
